Reference: patent US20130338129A1, “METHOD OF TREATING REFRACTORY CANCER” (Niiki Pharma Inc., priority 2010, published 2013)
Read-outs that look alike come from different tables or passages of the source.

What was measured:
[1] = system: Human lung carcinoma cell line A549; assay: MTT Cell Proliferation Assay, A549 cells; format: cell-based; details: for IC50: A549 cells, MTT, 72 hours post-treatment; for IC50 Ratio (A549/H1975): ratio of IC50 in A549 to IC50 in H1975
Method: (§1) Human lung carcinoma cell line A549 plates were seeded with 2,500 cells/well, and the cells were grown in Ham's F12 medium containing 10% FBS and 1% penicillin/strep/glutamine. Cultures were maintained in a 37° C. humidified 5% CO2/95% air atmosphere. Stock cultures were allowed to grow to 70-80% confluence for this study. […] 1000 μl of medium was removed from each well at 72 hours post-treatment and 10 μl MTT reagent was added to each well. The plates were incubated at 37° C. for 4 hours and then 100 μl of detergent was added. The plates were left overnight at room temperature in the dark and was read on a plate reader using SoftMax® Pro (version 5.2, Molecular Devices).
The absorbance data was analyzed as follows: Absorbance values were converted to Percent of Control and plotted against test agent concentrations for IC50 calculations using SoftMax® Pro (version 5.2, Molecular Devices). The plate blank signal average was subtracted from all wells prior to calculating the Percent of Control. Percent of Control values were calculated by dividing the absorbance values for each test well by the No Drug Control average (column 11 values; cells+vehicle control) and multiplying by 100. Plots of Compound Concentration versus Percent of Control were analyzed using the 4-parameter equation to obtain IC50 values and other parameters that describe the sigmoidal dose response curve.
The IC50 values for the test agents were estimated by curve-fitting the data using the following four parameter-logistic equation:
wherein “Top” is the maximal % of control absorbance (100%), “Bottom” is the minimal % of control absorbance at the highest agent concentration (down to zero), Y is the Percent of Control absorbance, X is the test agent Concentration, IC50 is the concentration of agent that inhibits cell growth by 50% compared to the control cells, n is the slope of the curve.

[2] = system: human lung carcinoma cell line H1975; assay: MTT Cell Proliferation Assay, H1975 cells; format: cell-based
Method: (“Test Drug”) was 41 μM (FIG. 1).
Table 2 below summarizes the activities on the two compounds in the different lung cancer cell lines tested.

[3] = system: colorectal adenocarcinoma; assay: Human clinical trial (UK), refractory colorectal cancer patient; format: in vivo; details: person, colorectal adenocarcinoma failed oxaliplatin, capecitibine, cetuximab, irinotecan, panitumumab; 500 mg/m^2 i.v. daily days 1-4 of 21-day cycle, 4 cycles
Description: The trial enrolled a person with colorectal adenocarcinoma, adenocystic histology, incompletely resected in September 2007. Their initial therapy consisted of oxaliplatin, capecitibine and cetuximab between October 2007 and February 2009 with best response of progressive disease. […] They then were changed to irinotecan and panitumumab, administered between April 2009 and October 2009, again with best response progressive disease.

[4] = system: Non-Small Cell Lung Cancer; assay: Human clinical trial (US), refractory lung cancer patients; format: in vivo; details: 320 mg/m^2 i.v. day 1, 8, 15 of 28-day cycle, 4 cycles
Method: Patient No. 04-005 was a person with Stage IV Non-Small Cell Lung Cancer, moderately differentiated adenocarcinoma histology, diagnosed in April 2006. […] Combination chemotherapy with docetaxel, carboplatin and bevacizumab was administered between September and December 2006, with which the patient achieved a complete response. The patient suffered a disease recurrence and was started on sorafenib in April 2008. Sorafenib was discontinued in May 2008 due to disease progression. […] Between November 2009 and January 2010, the patient received gemcitibine.
Patient No. 04-011 was a person with Stage IIIB Non-Small Cell Lung Cancer, poorly differentiated adenocarcinoma histology, diagnosed in January 2005. Initial therapy consisted of carboplatin, gemcitibine and zoledronic acid from January 2005 through August 2005, with a partial response. […] In December 2005, chest radiotherapy with 54 Gy, with paclitaxel radiosensitization, was initiated and completed by February 2006. Through the remainder of 2006, the patient received a course of single agent erlotinib and a course of single agent pemetrexed; best response to these therapies is unknown. In January 2007, combination therapy with gemcitibine and navelbine was initiated, but their best response was disease progression. Experimental therapy with PTK787 (vatalanib) and imatinib was initiated in February 2007. […]

[5] = system: Human malignant melanoma cell line G361; assay: MTT Cell Proliferation Assay, G361 cells; details: read-out: IC50 (concentration of agent that inhibits cell growth by 50%)
Method: as §1
The absorbance data was analyzed as follows: Absorbance values were converted to Percent of Control and plotted against test agent concentrations for IC50 calculations using SoftMax® Pro (version 5.2, Molecular Devices). The plate blank signal average was subtracted from all wells prior to calculating the Percent of Control. Percent of Control values were calculated by dividing the absorbance values for each test well by the No Drug Control average (column 11 values; cells+vehicle control) and multiplying by 100. Plots of Compound Concentration versus Percent of Control were analyzed using the 4-parameter equation to obtain IC50 values and other parameters that describe the sigmoidal dose response curve. […]

[6] = system: human lung carcinoma cell line H1975; details: T790M mutation in the EGFR gene; Bao et al. 2009; cited from earlier work
A549 cells = details: Denlinger et al. 2004; cited from earlier work

In the case of `[Cl][Ru-]([Cl])([Cl])[Cl].[Na+].c1ccc2[nH]ncc2c1.c1ccc2[nH]ncc2c1`, the IC50 [1] is reported as 9.9 µM, the “IC50 Ratio (A549/H1975)” value [1] is reported as 0.29 and the IC50 ([2]; 72 hours post-treatment) is reported as 33.6 µM. The best response [3] was “stable disease”, the best response ([4]; Patient No. 04-005, Stage IV NSCLC) was “stable disease” and the best response ([4]; Patient No. 04-011, Stage IIIB NSCLC) was “stable disease”. It also gave an IC50 ([5]; G361 melanoma cells, MTT, 72 hours post-treatment) of 41 µM.

For `CC(=O)O[C@H]1C(=O)[C@@]2(C)[C@H]([C@H](OC(=O)c3ccccc3)[C@]3(O)C[C@H](OC(=O)[C@H](O)[C@@H](NC(=O)c4ccccc4)c4ccccc4)C(C)=C1C3(C)C)[C@]1(OC(C)=O)CO[C@@H]1C[C@@H]2O` [Paclitaxel, paclitaxel], the IC50 ([1]; Homo sapiens) was 9.92 µM, the “IC50 Ratio (A549/H1975)” value [1] was 1984 and the IC50 ([2]; Homo sapiens, NCI-H1975, 72 hours post-treatment) was 0.005 µM.

In the case of `C#Cc1cccc(Nc2ncnc3cc(OCCOC)c(OCCOC)cc23)c1` [erlotinib], the “sensitivity of H1975 cells” value [6] is listed as “resistant”.

In the case of `COc1cc2ncnc(Nc3ccc(F)c(Cl)c3)c2cc1OCCCN1CCOCC1` [gefitinib], the “sensitivity of H1975 cells” value [6] is given as “resistant”.

In the case of `Nc1ccn([C@@H]2O[C@H](CO)[C@@H](O)C2(F)F)c(=O)n1` [gemcitabine], the “sensitivity of A549 cells” value (A549 cells) is listed as “inherently resistant”.

`Cn1nnc2c(C(N)=O)ncn2c1=O` [temozolomide] gave an IC50 ([5]; Homo sapiens, G-361, 72 h) of 199 µM.
